For 20 compounds, IC50, fold change (FC) and Activity results are on record in ChEMBL document CHEMBL4823253, “Structure-Based Design of Selective LONP1 Inhibitors for Probing In Vitro Biology” (J Med Chem, 2021).

The structures appear in SMILES notation. pIC50: −log10 of the molar value. Active and inactive are the calls of the source. No cut-off for these calls is given here.

For experiment [1], the target named is T1, Lon protease homolog, mitochondrial (Homo sapiens, UniProt P36776).
T1 sequence (P36776 whole entry): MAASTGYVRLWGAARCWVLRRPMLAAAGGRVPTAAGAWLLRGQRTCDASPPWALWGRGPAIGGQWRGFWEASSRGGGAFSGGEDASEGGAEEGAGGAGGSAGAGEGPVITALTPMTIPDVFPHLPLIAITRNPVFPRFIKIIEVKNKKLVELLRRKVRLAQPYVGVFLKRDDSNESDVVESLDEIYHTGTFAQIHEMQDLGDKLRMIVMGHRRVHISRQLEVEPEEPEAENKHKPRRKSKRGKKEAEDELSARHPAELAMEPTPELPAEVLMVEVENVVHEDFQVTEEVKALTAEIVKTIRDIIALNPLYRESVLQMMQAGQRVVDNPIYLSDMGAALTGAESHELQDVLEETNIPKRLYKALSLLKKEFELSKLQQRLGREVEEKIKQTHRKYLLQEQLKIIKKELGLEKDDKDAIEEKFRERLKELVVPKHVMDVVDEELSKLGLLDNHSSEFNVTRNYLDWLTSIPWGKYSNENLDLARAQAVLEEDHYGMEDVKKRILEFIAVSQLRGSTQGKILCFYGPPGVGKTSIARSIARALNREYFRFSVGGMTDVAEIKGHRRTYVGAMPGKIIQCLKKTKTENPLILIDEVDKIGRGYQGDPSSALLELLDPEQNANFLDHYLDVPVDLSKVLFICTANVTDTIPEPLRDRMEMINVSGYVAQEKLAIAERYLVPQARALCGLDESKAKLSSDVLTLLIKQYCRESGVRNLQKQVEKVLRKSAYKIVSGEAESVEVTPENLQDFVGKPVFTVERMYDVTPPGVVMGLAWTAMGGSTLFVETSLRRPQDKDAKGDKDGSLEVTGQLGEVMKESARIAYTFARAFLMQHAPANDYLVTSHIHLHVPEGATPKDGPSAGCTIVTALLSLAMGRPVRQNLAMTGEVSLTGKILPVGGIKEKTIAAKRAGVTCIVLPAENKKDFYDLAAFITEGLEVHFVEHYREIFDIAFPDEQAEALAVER
Put plainly: Inhibition of LONP1 (unknown origin) using QXL520-YRGITCSGRQK(5-FAM)-NH2 peptide as substrate incubated for 50 mins in presence of ATP by HTRF assay. (TR-FRET usually uses a lanthanide donor and a delayed reading to cut background.)

The target of a further experiment is 20S proteasome. In words: Inhibition of human erythrocytes 20S proteasome using QXL520-YRGITCSGRQK(5-FAM)-NH2 fluorogenic peptide as substrate preincubated for 10 mins followed by substrate addition and measured after 60 mins by HTRF assay. As to conditions: erythrocyte.
Experiment [2] addresses T2, Cobalamin trafficking protein CblD (Homo sapiens) (UniProt Q9H3L0).
T2 sequence (whole entry): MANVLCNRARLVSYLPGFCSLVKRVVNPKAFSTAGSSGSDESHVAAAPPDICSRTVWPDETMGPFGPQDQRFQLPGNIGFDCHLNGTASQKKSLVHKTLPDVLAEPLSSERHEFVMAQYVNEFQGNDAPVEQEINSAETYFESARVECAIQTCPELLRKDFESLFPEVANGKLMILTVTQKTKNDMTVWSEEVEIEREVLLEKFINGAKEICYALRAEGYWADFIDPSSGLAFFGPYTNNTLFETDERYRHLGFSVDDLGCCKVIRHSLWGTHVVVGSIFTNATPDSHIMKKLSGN
Put plainly: Binding affinity to MMADHC in human LONP1 dependent NCI-H1944 cells assessed as increase in protein abundance at 10 uM by WES analysis relative to control. Format: cell-based.

Experiment [3] concerns the target T2, Cobalamin trafficking protein CblD (Homo sapiens). In words: Binding affinity to MMADHC in human Flp-In-T-REx-293 stably expressing 3X-FLAG-tagged LOPN1 assessed as increase in protein abundance by mass spectrometric analysis.
For experiment [4] the target is unchanged. In words: Binding affinity to MMADHC in human LONP1 dependent NCI-H1568 cells assessed as increase in protein abundance relative to control. Format: cell-based.
The target is the same in experiment [5]. In words: Binding affinity to MMADHC in human LONP1 dependent Calu-6 cells assessed as increase in protein abundance by HTRF assay relative to control.

On to `CCC[C@@H](NC(=O)c1cnccn1)C(=O)N[C@@H](CC1CCCCC1)B(O)O`, for which the pIC50 (in general, the negative decadic logarithm of the IC50, by convention in mol/L) in experiment [1] was 6.87; on 20S proteasome, < 5.00.
For `CC(C)C[C@H](NC(=O)[C@H](NC(=O)c1cnccn1)C(C)C)B(O)O`, in that order: 6.26 and 5.40.
For the compound `CC(C)C[C@H](NC(=O)C(C)(C)NC(=O)c1cnccn1)B(O)O`, the pIC50 in experiment [1] was 5.21.
Take `O=C(N[C@H](Cc1ccccc1)C(=O)N[C@@H](CCc1ccccc1)B(O)O)c1cnccn1`: the pIC50 in experiment [1] is 7.47; against 20S proteasome, 6.58.
Take `O=C(N[C@H](Cc1ccccc1)C(=O)N[C@@H](CC1CCCCC1)B(O)O)c1cnccn1`: the results for the pIC50 (in experiment [1]; against 20S proteasome) were 7.04 and 6.27, respectively.
As to `O=C(N[C@H](Cc1ccccc1)C(=O)N[C@@H](Cc1ccccc1)B(O)O)c1cnccn1`, the pIC50 was 6.96 in experiment [1] and 6.17 against 20S proteasome.
Take `CC(C)CCC[C@H](NC(=O)[C@@H](Cc1ccccc1)NC(=O)c1cnccn1)B(O)O`: the pIC50 is 7.19 in experiment [1] and 5.98 at 20S proteasome.
Take `CCC[C@@H](NC(=O)c1cnccn1)C(=O)N[C@@H](CCc1ccccc1)B(O)O`: the pIC50 in experiment [1] is 7.04; against 20S proteasome it was < 5.00.
On to `CC[C@@H](NC(=O)c1cnccn1)C(=O)N[C@@H](CC(C)C)B(O)O`, for which the pIC50 was 6.39 in experiment [1] and < 5.00 on 20S proteasome.
On to `CC(C)C[C@H](NC(=O)[C@@H](C)NC(=O)c1cnccn1)B(O)O`, for which the pIC50 in experiment [1] is 6.36; on 20S proteasome, 5.57.
As for `CCC[C@@H](NC(=O)c1cnccn1)C(=O)N[C@@H](CC(C)C)B(O)O`, the pIC50 in experiment [1] is 6.73; on 20S proteasome it was < 5.00.
For `CCC[C@@H](NC(=O)c1cnccn1)C(=O)N[C@@H](CCCc1ccccc1)B(O)O`, in that order: 7.77 and < 5.00.
For the compound `CCCC[C@H](NC(=O)[C@@H](CCC)NC(=O)c1cnccn1)B(O)O`, the values for the pIC50 (in experiment [1]; on 20S proteasome) were 7.42 and < 5.00, respectively.
For the compound `O=C(N[C@H](Cc1ccccc1)C(=O)N[C@@H](CCCc1ccccc1)B(O)O)c1cnccn1`, the results for the pIC50 (in experiment [1]; on 20S proteasome) were 7.74 and 6.59, respectively.
For `CC(C)C[C@H](NC(=O)[C@@H](CC1CCCCC1)NC(=O)c1cnccn1)B(O)O`, in that order: 6.86 and 6.07.
As to `CCC[C@@H](NC(=O)c1oc(C)nc1C)C(=O)N[C@@H](CCCc1ccccc1)B(O)O`, the fold change (FC) in experiment [2], in experiment [4] and in experiment [5] was 30 in each case. For the same compound, the pIC50 in experiment [1] is 7.23; against 20S proteasome it was < 5.00. In experiment [3], the outcome was Active.
`O=C(N[C@H](Cc1ccccc1)C(=O)N[C@@H](CCCCCBr)B(O)O)c1cnccn1`: the figures for the pIC50 (in experiment [1]; against 20S proteasome) were 7.11 and 5.71, respectively.
Take `CCC[C@@H](NC(=O)c1cnccn1)C(=O)N[C@@H](Cc1ccccc1)B(O)O`: the pIC50 in experiment [1] was 6.25; against 20S proteasome, < 5.00.
As for `CCCC[C@@H](NC(=O)c1cnccn1)C(=O)N[C@@H](CC(C)C)B(O)O`, the figures for the pIC50 (in experiment [1]; against 20S proteasome) were 7.03 and < 5.00, respectively.
As for `CC(C)C[C@H](NC(=O)[C@H](NC(=O)c1cnccn1)C(C)(C)C)B(O)O`, the pIC50 in experiment [1] is 5.55; against 20S proteasome, < 5.00.
